Laboratory results as given in patent publication US9458460B2, “Pharmaceutical compositions for treating cancer” (National University of Singapore, priority 2011, dated 2016).
Read-outs that look alike come from different tables or passages of the source.

Legend:
Format in all cases: cell-based
SMAD1/5/8 = assay: phosphorylation of BMP-downstream targets after 5-azadC treatment
Description: (§1) Gastric cancer cell lines were treated with 5-aza-2′-deoxycytidine (5-azadC), a chemical inhibitor of DNA methyltransferases to investigate if BMP4 gene expression is regulated by BMP4 promoter methylation.

BMP4 = BMP4 expression after 5-azadC treatment
Description: as §1

YCC11 cells [1] = assay: cisplatin growth inhibition (GI50) in GC cell lines; conditions: 48 hrs
Description: (§2) 20 GC cell lines were treated with increasing concentrations of cisplatin, from 0.1 μM to 1 mM. For each line, the cisplatin GI50, referring to the concentration of cisplatin required to cause 50% growth inhibition at 48 hrs.

AGS cells = assay: as above; conditions: 48 hrs
Description: as §2

AZ521 cells = assay: cisplatin growth inhibition and caspase-3 activation in BMP4-manipulated cells; conditions: for GI50: read-out: absolute GI50
GC cells = assay: high-content screening of morpho-cellular parameters after cisplatin treatment
Description: The reason for cell growth inhibition caused by cisplatin was determined using high-content screening (HCS), a cell-based technology allowing biological responses to be measured at the single-cell level, to quantify levels of caspase-3 activation in GC cells after cisplatin treatment. Five distinct morpho-cellular parameters were quantified for alterations induced by cisplatin—caspase3 activation, nuclear size, nuclear condensation, nuclear morphology and nuclear ellipticity.

YCC11 cells [2] = assay: cisplatin growth inhibition and caspase-3 activation in BMP4-manipulated cells; conditions: for IC50: read-out: absolute 0150

Nc1ncn([C@H]2C[C@H](O)[C@@H](CO)O2)c(=O)n1 [5-azadC, 5-aza-2′-deoxycytidine]
phosphorylated SMAD1/5/8 (SMAD1/5/8; cisplatin resistant lines MKN45 and AZ521): not affected | phosphorylation of SMAD1/5/8 (SMAD1/5/8; cisplatin sensitive lines YCC10 and YCC11): increased | BMP4 transcripts (BMP4; cisplatin sensitive lines YCC10 and YCC11 (BMP4 promoter methylated)): up-regulated | BMP4 expression (BMP4; resistant cell lines MKN45 and AZ521 (BMP4 promoter unmethylated)): did not alter

N.N.[Cl][Pt][Cl] [cisplatin, cis-diamminedichloroplatinum (II)]
GI50 (YCC11 cells [1]): 1.5 µM | GI50 (AGS cells): 126 µM | GI50 (AZ521 cells; BMP4-silenced AZ521 cells (individual clones 1 and 2)): 1.1 to 3.24 µM | caspase-3 activation levels (AZ521 cells; BMP4-silenced AZ521 cells compared to control cells, after cisplatin treatment): significantly higher | GI50 (AZ521 cells; parental AZ521 cells): 15 µM | caspase-3 activation levels (GC cells; cisplatin-sensitive lines compared to cisplatin-resistant lines): Significantly higher | nuclear ellipticity (GC cells; top four sensitive lines compared to resistant lines): Significant changes | IC50 (YCC11 cells [2]; BMP4-overexpressing YCC11 cells (individual clones 1 and 2)): 0.2 to 0.5 µM | active Caspase-3 levels (YCC11 cells [2]; BMP4-overexpressing YCC11 cells, after cisplatin): reduction | IC50 (YCC11 cells [2]; parental YCC11 cells): 0.045 µM
